Source: patent US20140303092A1 (CHIMERIX, INC., priority 2011, published 2014)

Test: Study HDP-CDV-201: safety and tolerability (adverse events, laboratory abnormalities, discontinuations)
Format: in vivo, human (adult allogeneic HSCT recipients)
Details: 200 mg BIW
Description: Clinical Studies of HDP-CDV were performed and described in detail in the following Examples. For example, HDP-CDV-201 is a placebo-controlled, dose-escalating trial in HSCT CMV (R+) recipients, evaluating the ability of HDP-CDV to prevent or control CMV infection was carried out. Five cohorts were established in which participants or subjects received either placebo or the HDP-CDV orally, in doses ranging from 40 mg weekly (QW) to 200 mg twice weekly (BIW). Subjects who were post-HSCT were enrolled at the time of engraftment and randomized to HDP-CDV or placebo (3 to 1 ratio) and received blinded therapy until approximately 100 day post-transplantation. HDP-CDV doses were 40 mg QW, 100 mg QW, 200 mg QW, 200 mg BIW and 100 mg BIW. Escalation to the next dose was decided by the data monitoring committee after review of the safety data from the previous Cohort. Subjects who developed CMV disease or CMV infection requiring pre-emptive therapy with local standard of care were discontinued from blinded therapy and followed for 4 weeks. Subjects who completed treatment with blinded therapy were followed for 8 weeks post-therapy.
Data from Study HDP-CDV-201 also provided characterization of the safety and tolerability profile of HDP-CDV when administered for the prevention or control of CMV infection in high risk (R^+) post-HSCT adult subjects.
The Safety population (SAFETY) included all randomized subjects who took at least one dose of study treatment. This population was used to summarize safety outcomes based on the treatment actually received, in cases where a subject was treated contrary to the randomization schedule.
The safety and tolerability profile of HDP-CDV, including subject demographics and Baseline characteristics; the AE profile; and laboratory abnormalities of interest were analyzed in the cohorts followed in this investigation.
Subjects completing the treatment period received a full course of study medication; those completing the entire study attended visits through 8 weeks of follow up. Subjects who discontinued treatment may have done so for protocol specified reasons (e.g. development of clinically significant CMV infection requiring preemptive treatment with excluded anti-CMV medications) or for other reasons (e.g., withdrawal, adverse events, loss to follow-up). The disposition of subjects in Study HDP-CDV-201 during the double-blind, placebo-controlled treatment period (through Week 11) is listed by dosing Cohort in TABLE 23.
Adverse events were examined by severity to ensure that all safety signals were identified in this study population. Because of the frequency of events in HSCT recipients, particular attention was given to evaluation of Grade 3 […], 4 (severe), and 5 (fatal) adverse events.
Only those preferred terms for which at least one Grade 3 or higher event was experienced in any treatment group are listed. Cytomegalovirus-related AEs are excluded from this analysis.
HDP-CDV is a lipid conjugate of CDV. Because CDV is known to have adverse effects on renal function and bone marrow, decreased GFR and persistent neutropenia were identified as AEs of special interest. Key renal and hematological (TABLE 30) laboratory parameters were measured and listed below by Study HDP-CDV-201 treatment groups. TABLE 30 includes abnormal levels of serum creatinine, neutrophils, platelets, WBCs, and hemoglobin and includes data at Screening and during the treatment period.
A common metric for unit based dosing of medications is by weight (mg/kg). When the distribution of weights was examined for all subjects participating in the study, the median was 78 kg and the lower 25th percentile weight was approximately 65 kg, which translates to a cut-off of ˜3 mg/kg for a 200 mg total weekly dose. Based upon this approach, a cut-off of 3 mg/kg was used to assess the frequency of diarrhea and associated GI AEs reported for the subjects in Cohorts 3 or 4a (TABLE 40).

With `CCCCCCCCCCCCCCCCOCCCOP(=O)(O)COC(CO)Cn1ccc(N)nc1=O` (stereo not drawn) [HDP-CDV] the “TEAE Abdominal pain, Grade 3” value was 0, the “TEAE Abdominal pain, Grade 4” value was 0 and the “TEAE Abdominal pain, Grade 5” value was 0. The “TEAE Acute GVHD, Frequency” value was 24 (80.0%), the “TEAE Acute GVHD, Grade 2” value was 8 (26.6%) and the “TEAE Acute GVHD, Grade 3” value was 10 (30.0%). For the same compound, the “TEAE Acute GVHD, Grade 4” value was 2 (6.7%), the “TEAE Acute GVHD, Grade 5” value was 3 (10.0%) and the “TEAE Arthralgias, Frequency” value was 1 (3.3%). For the same compound, the “TEAE Arthralgias, Grade 2” value was 1 (3.3%), the “TEAE Arthralgias, Grade 3” value was 0 and the “TEAE Arthralgias, Grade 4” value was 0. For the same compound, the “TEAE Arthralgias, Grade 5” value was 0, the “TEAE Back Pain, Frequency” value was 3 (10.0%) and the “TEAE Back Pain, Grade 2” value was 1 (3.3%). The “TEAE Back Pain, Grade 3” value was 0, the “TEAE Back Pain, Grade 4” value was 0 and the “TEAE Back Pain, Grade 5” value was 0. For the same compound, the “TEAE Decreased appetite, Frequency” value was 5 (16.7%), the “TEAE Decreased appetite, Grade 2” value was 4 (13.3%) and the “TEAE Decreased appetite, Grade 3” value was 0. The “TEAE Decreased appetite, Grade 4” value was 0, the “TEAE Decreased appetite, Grade 5” value was 0 and the “TEAE Diarrhea, Frequency” value was 21 (70.0%). The “TEAE Diarrhea, Grade 2” value was 8 (26.7%), the “TEAE Diarrhea, Grade 3” value was 11 (36.7%) and the “TEAE Diarrhea, Grade 4” value was 0. The “TEAE Diarrhea, Grade 5” value was 0, the “TEAE Fatigue, Frequency” value was 0 and the “TEAE Fatigue, Grade 2” value was 0. For the same compound, the “TEAE Fatigue, Grade 3” value was 0, the “TEAE Fatigue, Grade 4” value was 0 and the “TEAE Fatigue, Grade 5” value was 0. The “TEAE GGT Increased, Frequency” value was 3 (10.0%), the “TEAE GGT Increased, Grade 2” value was 0 and the “TEAE GGT Increased, Grade 3” value was 1 (3.3%). The “TEAE GGT Increased, Grade 4” value was 1 (3.3%), the “TEAE GGT Increased, Grade 5” value was 0 and the “TEAE Generalized oedema, Frequency” value was 3 (10.0%). For the same compound, the “TEAE Generalized oedema, Grade 2” value was 0, the “TEAE Generalized oedema, Grade 3” value was 2 (6.7%) and the “TEAE Generalized oedema, Grade 4” value was 0. For the same compound, the “TEAE Generalized oedema, Grade 5” value was 0, the “TEAE Hyperbilirubinaemia, Frequency” value was 5 (16.7%) and the “TEAE Hyperbilirubinaemia, Grade 2” value was 1 (3.3%). The “TEAE Hyperbilirubinaemia, Grade 3” value was 0, the “TEAE Hyperbilirubinaemia, Grade 4” value was 1 (3.3%) and the “TEAE Hyperbilirubinaemia, Grade 5” value was 0. For the same compound, the “TEAE Hyperglycaemia, Frequency” value was 8 (26.7%), the “TEAE Hyperglycaemia, Grade 2” value was 5 (16.7%) and the “TEAE Hyperglycaemia, Grade 3” value was 2 (6.7%). For the same compound, the “TEAE Hyperglycaemia, Grade 4” value was 0, the “TEAE Hyperglycaemia, Grade 5” value was 0 and the “TEAE Hyperkalemia, Frequency” value was 3 (10.0%). For the same compound, the “TEAE Hyperkalemia, Grade 2” value was 1 (3.3%), the “TEAE Hyperkalemia, Grade 3” value was 1 (3.3%) and the “TEAE Hyperkalemia, Grade 4” value was 0. For the same compound, the “TEAE Hyperkalemia, Grade 5” value was 0, the “TEAE Hypocalcaemia, Frequency” value was 3 (10.0%) and the “TEAE Hypocalcaemia, Grade 2” value was 1 (3.3%). The “TEAE Hypocalcaemia, Grade 3” value was 1 (3.3%), the “TEAE Hypocalcaemia, Grade 4” value was 0 and the “TEAE Hypocalcaemia, Grade 5” value was 0. The “TEAE Hypokalaemia, Frequency” value was 5 (16.7%), the “TEAE Hypokalaemia, Grade 2” value was 1 (3.3%) and the “TEAE Hypokalaemia, Grade 3” value was 1 (3.3%). The “TEAE Hypokalaemia, Grade 4” value was 0, the “TEAE Hypokalaemia, Grade 5” value was 0 and the “TEAE Hyponatraemia, Frequency” value was 2 (6.7%). For the same compound, the “TEAE Hyponatraemia, Grade 2” value was 0, the “TEAE Hyponatraemia, Grade 3” value was 0 and the “TEAE Hyponatraemia, Grade 4” value was 0. For the same compound, the “TEAE Hyponatraemia, Grade 5” value was 0, the “TEAE LFT Abnormal, Frequency” value was 3 (10.0%) and the “TEAE LFT Abnormal, Grade 2” value was 1 (3.3%). The “TEAE LFT Abnormal, Grade 3” value was 1 (3.3%), the “TEAE LFT Abnormal, Grade 4” value was 0 and the “TEAE LFT Abnormal, Grade 5” value was 0. The “TEAE Leukocytosis, Frequency” value was 3 (10.0%), the “TEAE Leukocytosis, Grade 2” value was 1 (3.3%) and the “TEAE Leukocytosis, Grade 3” value was 0. For the same compound, the “TEAE Leukocytosis, Grade 4” value was 0, the “TEAE Leukocytosis, Grade 5” value was 0 and the “TEAE Nausea, Frequency” value was 11 (36.7%). The “TEAE Nausea, Grade 2” value was 6 (20.0%), the “TEAE Nausea, Grade 3” value was 1 (3.3%) and the “TEAE Nausea, Grade 4” value was 0. For the same compound, the “TEAE Nausea, Grade 5” value was 0, the “TEAE Neutropenia, Frequency” value was 4 (13.3%) and the “TEAE Neutropenia, Grade 2” value was 0. For the same compound, the “TEAE Neutropenia, Grade 3” value was 1 (3.3%), the “TEAE Neutropenia, Grade 4” value was 2 (6.7%) and the “TEAE Neutropenia, Grade 5” value was 0. For the same compound, the “TEAE Pneumonia, Frequency” value was 1 (3.3%), the “TEAE Pneumonia, Grade 2” value was 0 and the “TEAE Pneumonia, Grade 3” value was 1 (3.3%). The “TEAE Pneumonia, Grade 4” value was 0, the “TEAE Pneumonia, Grade 5” value was 0 and the “TEAE Pyrexia, Frequency” value was 2 (6.7%). For the same compound, the “TEAE Pyrexia, Grade 2” value was 0, the “TEAE Pyrexia, Grade 3” value was 0 and the “TEAE Pyrexia, Grade 4” value was 0. For the same compound, the “TEAE Pyrexia, Grade 5” value was 0, the “TEAE Renal Failure, Frequency” value was 0 and the “TEAE Renal Failure, Grade 2” value was 0. The “TEAE Renal Failure, Grade 3” value was 0, the “TEAE Renal Failure, Grade 4” value was 0 and the “TEAE Renal Failure, Grade 5” value was 0. The “TEAE Staphylococcal Bacteremia, Frequency” value was 1 (3.3%), the “TEAE Staphylococcal Bacteremia, Grade 2” value was 0 and the “TEAE Staphylococcal Bacteremia, Grade 3” value was 1 (3.3%).
